Experimental data reported in PMC4201332 (ACS Chemical Biology, 2014).
Each block holds one compound with its values, some of them ahead of it.

Key:
[1] = biological target: hmGlu1 (Homo sapiens, UniProt Q13255); assay: Calcium mobilization mGlu1 PAM potency assay; format: cell-based; settings: for Emax: T-REx-293, read-out: hmGlu1 % Glu Max (±SEM)
[2] = biological target: CYP3A4 (Homo sapiens, UniProt P08684); assay: Cytochrome P450 inhibition; format: in vitro ADME
[3] = biological target: CYP2D6 (Homo sapiens, UniProt P10635); assay: Cytochrome P450 inhibition; format: in vitro ADME
[4] = biological target: CYP2C9 (Homo sapiens, UniProt P11712); assay: Cytochrome P450 inhibition; format: in vitro ADME
[5] = biological target: T1, CYP1A2 (Homo sapiens, UniProt P05177); assay: Cytochrome P450 inhibition; format: in vitro ADME
T1 sequence (P05177 1-516): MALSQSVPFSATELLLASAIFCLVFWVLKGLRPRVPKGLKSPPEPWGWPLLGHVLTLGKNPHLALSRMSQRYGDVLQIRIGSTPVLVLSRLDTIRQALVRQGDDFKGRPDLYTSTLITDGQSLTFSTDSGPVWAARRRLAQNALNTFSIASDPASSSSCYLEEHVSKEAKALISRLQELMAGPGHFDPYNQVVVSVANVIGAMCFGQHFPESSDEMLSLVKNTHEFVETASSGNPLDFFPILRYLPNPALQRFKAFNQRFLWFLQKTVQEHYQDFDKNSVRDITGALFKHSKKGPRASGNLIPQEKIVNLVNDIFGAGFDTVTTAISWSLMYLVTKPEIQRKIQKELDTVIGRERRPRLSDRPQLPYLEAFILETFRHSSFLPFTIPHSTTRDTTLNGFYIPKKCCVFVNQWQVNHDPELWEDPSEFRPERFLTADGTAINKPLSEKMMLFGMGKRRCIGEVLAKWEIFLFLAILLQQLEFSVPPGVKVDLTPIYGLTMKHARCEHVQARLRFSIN

[6] = test system: amphetamine-induced hyperlocomotion in WT rats; assay: Amphetamine-induced hyperlocomotion; format: in vivo, rat; settings: doses up to 100 mg/kg i.p.
[7] = biological target: hmGlu4 (Homo sapiens, UniProt Q14833); assay: Calcium mobilization mGlu4 assay; format: cell-based
[8] = biological target: T2, mGlu1 WT receptor (Homo sapiens, UniProt Q13255); format: cell-based
[9] = biological target: T2, mGlu1 WT receptor; format: cell-based; settings: 10 μM PAM
[10] = test system: mGlu1 Sz mutants; assay: Calcium mobilization in stable cell lines expressing schizophrenia; format: cell-based, human
[11] = biological target: mGlu1 P1015A mutant (Homo sapiens, UniProt Q13255, P1015A); assay: Calcium mobilization in stable Sz mutant cell line; format: cell-based; settings: agonist DHPG
[12] = biological target: mGlu1 K563N mutant (Homo sapiens, UniProt Q13255, K563N); assay: Calcium mobilization in stable Sz mutant cell line; format: cell-based; settings: agonist DHPG
[13] = hmGlu1 EC50, calcium mobilization, average of n = 3 performed in triplicate

hmGlu1, sequence (Q13255 19-1194): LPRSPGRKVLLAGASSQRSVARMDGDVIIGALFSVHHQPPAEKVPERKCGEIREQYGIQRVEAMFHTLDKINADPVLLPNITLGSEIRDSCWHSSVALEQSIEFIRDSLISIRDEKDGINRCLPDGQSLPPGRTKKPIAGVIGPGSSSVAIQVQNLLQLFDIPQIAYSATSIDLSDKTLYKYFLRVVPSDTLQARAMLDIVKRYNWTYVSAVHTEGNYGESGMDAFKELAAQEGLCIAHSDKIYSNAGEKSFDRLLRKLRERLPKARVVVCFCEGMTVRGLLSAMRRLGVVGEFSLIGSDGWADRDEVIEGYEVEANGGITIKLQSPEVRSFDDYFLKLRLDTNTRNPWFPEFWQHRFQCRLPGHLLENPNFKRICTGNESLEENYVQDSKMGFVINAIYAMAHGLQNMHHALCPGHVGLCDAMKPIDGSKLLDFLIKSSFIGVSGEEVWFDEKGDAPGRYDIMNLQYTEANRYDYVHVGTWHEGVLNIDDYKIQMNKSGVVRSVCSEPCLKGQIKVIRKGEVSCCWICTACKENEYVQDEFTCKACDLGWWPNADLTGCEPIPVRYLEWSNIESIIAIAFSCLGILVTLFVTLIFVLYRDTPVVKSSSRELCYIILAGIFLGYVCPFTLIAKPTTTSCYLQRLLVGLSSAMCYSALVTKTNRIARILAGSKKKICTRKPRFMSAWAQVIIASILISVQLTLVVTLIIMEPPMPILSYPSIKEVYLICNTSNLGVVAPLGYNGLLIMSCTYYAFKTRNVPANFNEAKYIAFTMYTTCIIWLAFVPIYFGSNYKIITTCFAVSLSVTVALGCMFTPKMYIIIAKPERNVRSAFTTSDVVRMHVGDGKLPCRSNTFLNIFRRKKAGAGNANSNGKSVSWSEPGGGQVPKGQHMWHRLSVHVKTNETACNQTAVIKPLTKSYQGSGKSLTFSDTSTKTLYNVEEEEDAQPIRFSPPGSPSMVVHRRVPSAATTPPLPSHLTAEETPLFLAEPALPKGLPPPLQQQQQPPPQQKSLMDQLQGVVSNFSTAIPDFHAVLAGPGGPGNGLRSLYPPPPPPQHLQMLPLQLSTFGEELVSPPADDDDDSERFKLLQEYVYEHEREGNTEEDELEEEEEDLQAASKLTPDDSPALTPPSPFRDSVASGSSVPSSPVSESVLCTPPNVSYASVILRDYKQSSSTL
T2 sequence (Q13255 19-1194): as above
hmGlu4, sequence (Q14833 33-912): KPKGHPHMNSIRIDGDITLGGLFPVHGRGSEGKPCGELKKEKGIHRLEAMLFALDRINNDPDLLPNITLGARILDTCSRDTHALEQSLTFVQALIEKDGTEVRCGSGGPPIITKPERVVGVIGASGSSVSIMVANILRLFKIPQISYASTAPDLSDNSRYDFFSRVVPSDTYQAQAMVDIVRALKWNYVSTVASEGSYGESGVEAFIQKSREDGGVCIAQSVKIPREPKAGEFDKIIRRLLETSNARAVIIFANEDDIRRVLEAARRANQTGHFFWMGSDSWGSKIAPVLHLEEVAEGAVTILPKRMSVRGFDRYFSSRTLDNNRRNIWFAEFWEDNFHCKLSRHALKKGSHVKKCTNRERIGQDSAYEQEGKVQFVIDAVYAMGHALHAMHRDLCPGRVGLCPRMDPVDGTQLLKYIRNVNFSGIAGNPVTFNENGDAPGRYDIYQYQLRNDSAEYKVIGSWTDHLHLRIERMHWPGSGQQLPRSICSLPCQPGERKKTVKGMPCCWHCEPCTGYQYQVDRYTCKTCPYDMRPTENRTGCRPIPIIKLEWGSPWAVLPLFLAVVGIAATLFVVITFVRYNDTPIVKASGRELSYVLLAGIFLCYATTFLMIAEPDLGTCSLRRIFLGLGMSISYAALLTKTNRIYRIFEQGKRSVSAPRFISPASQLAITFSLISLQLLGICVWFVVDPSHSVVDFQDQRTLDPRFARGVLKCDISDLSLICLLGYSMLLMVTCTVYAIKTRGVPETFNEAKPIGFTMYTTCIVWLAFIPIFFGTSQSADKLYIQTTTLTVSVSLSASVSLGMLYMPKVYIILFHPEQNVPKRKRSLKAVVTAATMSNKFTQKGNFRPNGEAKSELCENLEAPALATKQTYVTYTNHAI
mGlu1 K563N mutant, sequence (Q13255 19-1194 K563N): as the sequence (Q13255 19-1194) above, with K545N counted along it
mGlu1 P1015A mutant, sequence (Q13255 19-1194 P1015A): as the sequence (Q13255 19-1194) above, with P997A counted along it
CYP2C9, sequence (P11712 whole entry): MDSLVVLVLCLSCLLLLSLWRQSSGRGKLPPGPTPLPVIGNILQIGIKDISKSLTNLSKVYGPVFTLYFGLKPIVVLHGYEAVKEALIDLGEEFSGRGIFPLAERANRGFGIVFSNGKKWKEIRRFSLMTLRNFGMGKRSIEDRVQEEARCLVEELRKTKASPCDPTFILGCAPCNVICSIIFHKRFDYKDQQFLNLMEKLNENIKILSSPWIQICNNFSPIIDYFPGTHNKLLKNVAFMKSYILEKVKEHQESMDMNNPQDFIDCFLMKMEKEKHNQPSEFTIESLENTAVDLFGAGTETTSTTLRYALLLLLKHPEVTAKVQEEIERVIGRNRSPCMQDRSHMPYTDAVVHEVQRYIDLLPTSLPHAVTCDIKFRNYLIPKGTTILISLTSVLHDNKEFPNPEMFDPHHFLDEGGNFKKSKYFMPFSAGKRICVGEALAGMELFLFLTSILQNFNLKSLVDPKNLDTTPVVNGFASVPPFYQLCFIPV
CYP2D6, sequence (P10635 whole entry): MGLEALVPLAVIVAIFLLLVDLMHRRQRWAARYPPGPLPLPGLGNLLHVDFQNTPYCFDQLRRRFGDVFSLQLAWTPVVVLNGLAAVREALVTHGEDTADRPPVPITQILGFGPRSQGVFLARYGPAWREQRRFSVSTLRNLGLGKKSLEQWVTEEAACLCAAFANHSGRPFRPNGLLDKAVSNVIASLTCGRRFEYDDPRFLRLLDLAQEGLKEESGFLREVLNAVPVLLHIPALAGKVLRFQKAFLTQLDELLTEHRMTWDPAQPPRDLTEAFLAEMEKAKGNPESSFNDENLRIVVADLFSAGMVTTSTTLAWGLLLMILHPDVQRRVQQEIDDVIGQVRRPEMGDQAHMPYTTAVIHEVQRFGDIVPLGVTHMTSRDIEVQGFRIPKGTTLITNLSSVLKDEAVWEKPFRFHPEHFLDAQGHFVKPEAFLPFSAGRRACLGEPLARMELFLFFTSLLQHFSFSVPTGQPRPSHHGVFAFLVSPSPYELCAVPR
CYP3A4, sequence (P08684 whole entry): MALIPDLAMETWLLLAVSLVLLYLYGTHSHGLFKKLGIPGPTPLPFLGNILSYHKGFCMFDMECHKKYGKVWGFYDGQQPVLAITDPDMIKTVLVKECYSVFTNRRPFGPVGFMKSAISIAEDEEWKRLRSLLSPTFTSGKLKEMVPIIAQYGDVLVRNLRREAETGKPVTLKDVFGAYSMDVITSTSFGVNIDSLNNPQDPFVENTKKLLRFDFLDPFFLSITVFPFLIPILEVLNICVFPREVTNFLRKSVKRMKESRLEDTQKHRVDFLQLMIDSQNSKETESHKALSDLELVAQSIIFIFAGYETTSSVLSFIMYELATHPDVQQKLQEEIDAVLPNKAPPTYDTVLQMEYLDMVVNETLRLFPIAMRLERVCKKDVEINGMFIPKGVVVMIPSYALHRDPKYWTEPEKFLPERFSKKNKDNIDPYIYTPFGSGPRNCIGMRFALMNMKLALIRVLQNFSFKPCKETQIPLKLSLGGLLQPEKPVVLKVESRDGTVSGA

SMILES: Cc1cccnc1C(=O)Nc1ccc(N2C(=O)c3cccc(C)c3C2=O)c(Cl)c1 [23a]
Emax [1]: 101 ± 7%
EC50 [1, 13]: 176 nM

SMILES: O=C(Nc1ccc(N2C(=O)c3cccc(Cl)c3C2=O)c(Cl)c1)c1ncccc1Cl [24c, N-(3-chloro-4-(4-chloro-1,3-dioxoisoindolin-2-yl)phenyl)-3-chloropicolinamide]
hmGlu1 % Glu Max (±SEM) ([1]; calcium mobilization): 110 ± 15%
EC50 [1, 13]: 391 nM
EC50 ([1]; hmGlu1 pEC50 (±SEM), calcium mobilization): 389 nM
IC50 [2]: > 30000 nM
IC50 [3]: > 30000 nM
IC50 [4]: > 30000 nM
IC50 [5]: > 30000 nM
effect on amphetamine-induced hyperlocomotion [6]: no effect up to the highest dose

SMILES: Cc1cccnc1C(=O)Nc1ccc(N2C(=O)c3cccc(Cl)c3C2=O)c(Cl)c1 [23c]
hmGlu1 % Glu Max (±SEM) ([1]; calcium mobilization): 126 ± 25%
EC50 [1, 13]: 372 nM
EC50 ([1]; hmGlu1 EC50, text and Figure 6): 370 nM
EC50 [7]: 199 nM
hmGlu4 % Glu Max ([7]; calcium mobilization): 55%
leftward fold shift of the DHPG concentration-response curve ([8]; 10 μM PAM, WT mGlu1): 3.4 fold
left-ward fold shift of the glutamate concentration response curve [9]: ~3 fold
effect on amphetamine-induced hyperlocomotion [6]: behaved similarly

SMILES: Cc1ccc2c(c1)C(=O)N(c1ccc(NC(=O)c3ncccc3C)cc1Cl)C2=O [23b]
Emax [1]: 130 ± 26%
EC50 [1, 13]: > 10000 nM

SMILES: N[C@@H](CCC(=O)O)C(=O)O [glutamate, L-glutamic acid]
calcium response, % of the WT response ([10]; agonist glutamate, mutants typically, except K563N and P1015A): 45–65%

SMILES: Cc1cccnc1C(=O)Nc1ccc(N2C(=O)c3cccc(F)c3C2=O)c(Cl)c1 [23e]
Emax [1]: 90 ± 15%
EC50 [1, 13]: 418 nM

Further lines, with some results ahead:

Emax [1]: 82 ± 4%
EC50 [1, 13]: 832 nM
SMILES: Cc1ccc2c(c1)C(=O)N(c1ccc(NC(=O)c3ncccc3Cl)cc1Cl)C2=O [24b]

Emax [1]: 110 ± 21%
EC50 [1, 13]: 177 nM
SMILES: Cc1cccc2c1C(=O)N(c1ccc(NC(=O)c3ncccc3Cl)cc1Cl)C2=O [24a]

EC50 [1, 13]: > 10000 nM
SMILES: Cc1cccnc1C(=O)Nc1ccc(N2C(=O)c3ccc(F)cc3C2=O)c(Cl)c1 [23f]

Emax [1]: 117 ± 9%
EC50 [1, 13]: 1140 nM
SMILES: O=C(Nc1ccc(N2C(=O)c3cccc(F)c3C2=O)c(Cl)c1)c1ncccc1Cl [24e]

EC50 [8]: 2500 nM
calcium response, % of WT response [11]: ~90%
calcium response, % of WT [12]: ~110%
SMILES: N[C@H](C(=O)O)c1cc(O)cc(O)c1 [DHPG, (S)-3,5-dihydroxyphenylglycine]
calcium response, % of WT response ([10]; agonist DHPG, majority of mutants, typically): 55–75%
